The supplement of paper PMC4862054

How the values were obtained:
Assay in all cases: normalised response (% of control), CellTox Green; higher = less cell death (100 = DMSO, 0 = benzethonium chloride kill control)
Conditions in all cases: incubation time: 72 h
[1] = tested on: HCC1599
Procedure, shortened: (§1)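 Breast cancer cell lines, seeded at 20 µl suspension per well, were incubated for 72 h in 384-well plates containing compound at 5 concentrations. These concentrations rose in 10-fold steps over a 10,000-fold range set for each compound. CellTox Green fluorescence (485/520 nm) was read, then CellTiter-Glo luminescence after 10 min at room temperature, and each plate was normalised to 0.1 % DMSO (100) and a positive kill control (0). Values are normalised signals, each at one concentration.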

[2] = tested on: Hs578T
Procedure, shortened: as §1

[3] = tested on: MCF-10A
Procedure, shortened: as §1

[4] = tested on: MDA-MB-231
Procedure, shortened: as §1

[5] = tested on: BT-549
Procedure, shortened: as §1

[6] = tested on: HCC1143
Procedure, shortened: as §1

[7] = tested on: DU-4475
Procedure, shortened: as §1

[8] = tested on: MDA-MB-453
Procedure, shortened: as §1

[9] = tested on: CAL-51
Procedure, shortened: as §1

[10] = tested on: MDA-MB-436
Procedure, shortened: as §1

[11] = tested on: HCC1937
Procedure, shortened: as §1

[12] = tested on: CAL-120
Procedure, shortened: as §1

[13] = tested on: CAL-85-1
Procedure, shortened: as §1

[14] = tested on: MDA-MB-468
Procedure, shortened: as §1

[15] = tested on: CAL-148
Procedure, shortened: as §1

[16] = tested on: MFM-223
Procedure, shortened: as §1

[17] = tested on: BT-474
Procedure, shortened: as §1

[18] = tested on: HDQ-P1
Procedure, shortened: as §1

SMILES | normalised response [1] [%] | normalised response [2] [%] | normalised response [3] [%] | normalised response [4] [%] | normalised response [5] [%] | normalised response [6] [%] | normalised response [7] [%] | normalised response [8] [%] | normalised response [9] [%] | normalised response [10] [%] | normalised response [11] [%] | normalised response [12] [%] | normalised response [13] [%] | normalised response [14] [%] | normalised response [15] [%] | normalised response [16] [%] | normalised response [17] [%] | normalised response [18] [%]
C=CCNC1=C2C[C@@H](C)C[C@H](OC)[C@H](O)[C@@H](C)/C=C(\C)[C@H](OC(N)=O)[C@@H](OC)/C=C\C=C(/C)C(=O)NC(=CC1=O)C2=O [Tanespimycin] (1000 nM) | 95.6 | 98.9 | 31.3 | 36.8 | 99.8 | 91.2 | 62.4 | 93.3 | 48.8 | 24.3 | 120 | 94.5 | 68.2 | 121 | 28.2 | 98.9 | 76.9 | 60.1
C=CCNC1=C2C[C@@H](C)C[C@H](OC)[C@H](O)[C@@H](C)/C=C(\C)[C@H](OC(N)=O)[C@@H](OC)/C=C\C=C(/C)C(=O)NC(=CC1=O)C2=O [Tanespimycin] (10000 nM) | 108 | 61.2 | 39.1 | 15.4 | 109 | 52.5 | 69 | 87.4 | 58.7 | 99.4 | 102 | 84.2 | 75.6 | 100 | 39.8 | 86 | 62.6 | 55.1
CO[C@H]1C[C@@H]2CC[C@@H](C)[C@@](O)(O2)C(=O)C(=O)N2CCCC[C@H]2C(=O)O[C@H]([C@H](C)C[C@@H]2CC[C@@H](OC(=O)C(C)(CO)CO)[C@H](OC)C2)CC(=O)[C@H](C)/C=C(\C)[C@@H](O)[C@@H](OC)C(=O)[C@H](C)C[C@H](C)/C=C/C=C/C=C/1C [Temsirolimus] (100 nM) | 106 | -18.9 | 91.2 | 123 | 130 | 130 | 98.8 | 107 | 103 | 97.1 | 110 | 102 | 80 | 149 | 87.2 | 90.9 | 91.2 | 109
C[C@]1(c2nc3c(C(N)=O)cccc3[nH]2)CCCN1 [Veliparib] (1000 nM) | 105 | 91.6 | 106 | 116 | 129 | 64.8 | 99 | 106 | 100 | 91.3 | 120 | 102 | 90 | 139 | 105 | 98.1 | 103 | 99
CC[C@]1(O)C[C@@H]2CN(CCc3c([nH]c4ccccc34)[C@@](C(=O)OC)(c3cc4c(cc3OC)N(C)[C@H]3[C@@](O)(C(=O)OC)[C@H](OC(C)=O)[C@]5(CC)C=CCN6CC[C@]43[C@@H]65)C2)C1 [Vinblastine] (100 nM) | 78.4 | -12.8 | 46 | 28.5 | 66.2 | 56.7 | 93.8 | 103 | 32.1 | 88.4 | -65.7 | 88.2 | 61.1 | 19.1 | 75.2 | 54.7 | 67.5 | 96.8
CC[C@]1(O)C[C@@H]2CN(CCc3c([nH]c4ccccc34)[C@@](C(=O)OC)(c3cc4c(cc3OC)N(C)[C@H]3[C@@](O)(C(=O)OC)[C@H](OC(C)=O)[C@]5(CC)C=CCN6CC[C@]43[C@@H]65)C2)C1 [Vinblastine] (1000 nM) | 75.5 | -39.7 | 50.5 | 19.5 | 61.4 | 34.2 | 95.5 | 96.5 | 20.7 | 83.1 | 92.1 | 89.8 | 85.4 | 70.2 | 89.4 | 51.2 | 75.3 | 101
CS(=O)(=O)c1ccc(C(=O)Nc2ccc(Cl)c(-c3ccccn3)c2)c(Cl)c1 [Vismodegib] (10000 nM) | 98.8 | 82.8 | 85.5 | 94.1 | 119 | 76.7 | 100 | 80.9 | 102 | 85.5 | 84.1 | 100 | 138 | 226 | 105 | 98 | 102 | 113
